From patent publication US10329289B2, “6,7-dihydro-5H-pyrrolo[3,4-B]pyridin-5-one allosteric modulators of the M4 muscarinic acetylcholine receptor” (Merck Sharp & Dohme Corp., priority 2015, dated 2019) come the findings set out here.

pEC50: −log10 of the molar value.

In this assay the target is T1, human M4 muscarinic acetylcholine receptor (Homo sapiens, UniProt P08173).
T1 construct: expressed in transfected cells; host or cells: CHO-K1
T1 sequence (P08173 1-479): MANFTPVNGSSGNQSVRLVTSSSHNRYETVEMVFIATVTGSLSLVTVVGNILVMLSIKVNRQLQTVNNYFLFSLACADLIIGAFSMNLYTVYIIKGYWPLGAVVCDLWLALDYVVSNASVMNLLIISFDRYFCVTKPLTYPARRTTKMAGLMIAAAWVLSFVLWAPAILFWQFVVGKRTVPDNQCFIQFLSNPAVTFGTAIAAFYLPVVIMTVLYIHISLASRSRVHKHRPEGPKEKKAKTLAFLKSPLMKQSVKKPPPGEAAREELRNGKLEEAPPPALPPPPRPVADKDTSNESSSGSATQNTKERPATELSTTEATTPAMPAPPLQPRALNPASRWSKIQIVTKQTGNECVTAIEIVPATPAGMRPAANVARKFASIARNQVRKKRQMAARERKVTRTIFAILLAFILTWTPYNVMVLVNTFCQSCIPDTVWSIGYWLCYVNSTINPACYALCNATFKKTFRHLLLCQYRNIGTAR
As to the kind of experiment: human FLIPR-based M4 PAM assay (Ca2+ mobilization, CHO-K1 cells with human M4 receptor and Gαqi5). The class given is cell-based. The note with it: acetylcholine at 20% of maximum response, read-out: M4 PAM IP. In a few lines:
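CHO-K1 cells stably expressing human M4 and chimeric Gαqi5 were dye-loaded ~1 h at 37 °C and read for Ca2+ fluorescence. Compound followed by acetylcholine at an EC20 (sometimes an EC70 third addition); inflection point from a 4-parameter logistic fit.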
On to `Cc1c(N2CCC(OCC3(C)CC3)CC2)nc2c(c1C)C(=O)NC2` [Example 219, 3,4-dimethyl-2-(4-((1-methylcyclopropyl)methoxy)piperidin-1-yl)-6,7-dihydro-5H-pyrrolo[3,4-b]pyridin-5-one], for which the pEC50 was 7.60.

On to `Cc1cc2c(nc1N1CC[C@H](OCC3(C)CC3)C(F)(F)C1)CNC2=O` [Example 171B, (S)-2-(3,3-difluoro-4-((1-methylcyclopropyl)meth-oxy)piperidin-1-yl)-3-methyl-6,7-dihydro-5H-pyrrolo[3,4-b]pyridin-5-one], for which the pEC50 was 7.85.

Take `Cc1cc2c(nc1N1CCC(Oc3ccc4c(c3)OCCC4)CC1)CNC2=O` [Example 113, 2-(4-(chroman-7-yloxy)piperidin-1-yl)-3-methyl-6,7-dihydro-5H-pyrrolo[3,4-b]pyridin-5-one]: the pEC50 is 7.30.

`Cc1cc2c(nc1N1CCC(Oc3ccc4c(c3)C(C)(C)CO4)CC1)CNC2=O` [Example 130, 2-(4-((3,3-dimethyl-2,3-dihydrobenzofuran-5-yl)oxy)piperidin-1-yl)-3-methyl-6,7-dihydro-5H-pyrrolo[3,4-b]pyridin-5-one]: the pEC50 was 6.98.

On to `Cc1cc2c(nc1N1CCC(Oc3cccc(CO)c3)CC1)CNC2=O` [Example 309, 2-(4-(3-(Hydroxymethyl)phenoxy)piperidin-1-yl)-3-methyl-6,7-dihydro-5H-pyrrolo[3,4-b]pyridin-5-one], for which the pEC50 is 7.33.

With `Cc1cc2c(nc1N1CCC(Oc3ccc4c(c3)COC4)CC1)CN(C)C2=O` [Example 38, 2-(4-((1,3-dihydro-2-benzofuran-5-yl)oxy)piperidin-1-yl)-3,6-dimethyl-6,7-dihydro-5H-pyrrolo[3,4-b]pyridin-5-one], the pEC50 was 7.52.

For the molecule `Cc1cc2c(nc1N1CC[C@@H](Oc3ccc(F)cc3)[C@@H](F)C1)CNC2=O` [Example 196, 2-((3S,4R)-3-fluoro-4-(4-fluorophenoxy)piperidin-1-yl)-3-methyl-6,7-dihydro-5H-pyrrolo[3,4-b]pyridin-5-one], the pEC50 is 7.66.

For the molecule `Cc1cc2c(nc1N1CCC(Oc3ccc4c(c3)CCC4)CC1)CNC2=O` [Example 44, 2-(4-((2,3-dihydro-1H-inden-5-yl)oxy)piperidin-1-yl)-3-methyl-6,7-dihydro-5H-pyrrolo[3,4-b]pyridin-5-one], the pEC50 is 6.89.

Regarding `Cc1cc2c(nc1N1CCC(Oc3ccc4c(c3)CN(C)CC4)CC1)CNC2=O` [Example 292, 3-methyl-2-(4-((2-methyl-1,2,3,4-tetrahydroisoquinolin-7-yl)oxy)piperidin-1-yl)-6,7-dihydro-5H-pyrrolo[3,4-b]pyridin-5-one], the pEC50 is 6.76.

Regarding `Cc1c(N2CCC(Oc3ccc4c(c3)COC4)CC2)nc2c(c1C)C(=O)N([C@H](C)CO)C2` [Example 266C, (R)-2-(4-((1,3-dihydro-2-benzofuran-5-yl)oxy)piperidin-1-yl)-6-(1-hydroxypropan-2-yl)-3,4-dimethyl-6,7-dihydro-5H-pyrrolo[3,4-b]pyridin-5-one], the pEC50 is 7.19.

With `Cc1cc2c(nc1N1CCC(OCC3(C)CC3(F)F)CC1)CNC2=O` (stereo not shown) [Example 64, 2-(4-((2,2-difluoro-1-methylcyclopropyl)methoxy)piperidin-1-yl)-3-methyl-6,7-dihydro-5H-pyrrolo[3,4-b]pyridin-5-one], the pEC50 is 6.69.

With `Cc1cc2c(nc1N1CCC(OC3CCOC3)CC1)CNC2=O` (stereo not shown) [Example 41, 3-methyl-2-(4-((tetrahydrofuran-3-yl)oxy)piperidin-1-yl)-6,7-dihydro-5H-pyrrolo[3,4-b]pyridin-5-one], the pEC50 is 4.95.

For the molecule `Cc1cc2c(nc1N1CCC(Oc3ccc4c(c3)OC[C@H]4CCO)CC1)CNC2=O` [Example 154, (S)-2-(4-((3-(2-hydroxyethyl)-2,3-dihydrobenzofuran-6-yl)oxy)piperidin-1-yl)-3-methyl-6,7-dihydro-5H-pyrrolo[3,4-b]pyridin-5-one], the pEC50 was 6.89.
